Assay results as given in publication PMC4453034, “A functional comparison of the domestic cat bitter receptors Tas2r38 and Tas2r43 with their human orthologs” (BMC Neuroscience, 2015).
Entries after “also recorded” stand apart in the source; their conditions may differ. Where a name gives a salt, the structure may show the parent alone. Read-outs that look alike come from different tables or passages of the source. Values belong to the compound of their own block, whether it stands above or below them.

Key:
human TAS2R43 [1] = target: T1, human TAS2R43 (Homo sapiens, UniProt P59537); test: Ca2+ flux assay, transiently transfected cells with Gα16-gust44; settings: for calcium flux response of human TAS2R43: PTC 100 μM, C4-HSL, aloin 300 μM, denatonium 1 mM, saccharin 6.7 mM; for Hill Slope TAS2R43 human: calcium flux dose response
T1 sequence (P59537 1-309): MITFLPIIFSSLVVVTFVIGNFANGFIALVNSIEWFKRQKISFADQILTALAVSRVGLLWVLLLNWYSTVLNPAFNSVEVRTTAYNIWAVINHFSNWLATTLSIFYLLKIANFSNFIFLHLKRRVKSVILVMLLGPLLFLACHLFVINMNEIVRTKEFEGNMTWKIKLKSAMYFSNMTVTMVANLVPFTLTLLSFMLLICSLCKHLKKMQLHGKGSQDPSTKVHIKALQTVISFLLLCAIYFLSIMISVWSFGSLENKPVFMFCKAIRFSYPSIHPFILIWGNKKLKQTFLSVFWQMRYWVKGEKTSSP

cat Tas2r43 [2] = target: cat Tas2r43 (Felis catus, UniProt A0ABI8A390); test: as above; settings: for calcium flux response of cat Tas2r43: PTC 100 μM, aloin 300 μM, denatonium 1 mM, saccharin 6.7 mM; for Hill Slope Tas2r43 cat: calcium flux dose response
human TAS2R43 [3] = target: T1, human TAS2R43; parameters: created similarly, expressing full-length receptor under the control of a CMV promoter; expressed in transfected cells; host or cells: mammalian cells (ATCC CRL-11268), co-transfected with Gα16-gust44; settings: published value for human TAS2R43; cited from earlier work
cat Tas2r43 [4] = test: Ca2+ flux assay, transiently transfected cells with Gα16-gust44; settings: PTC 100 μM, aloin 300 μM, denatonium 1 mM, saccharin 6.7 mM
human TAS2R38 [5] = target: T2, human TAS2R38 (Homo sapiens, UniProt P59533); parameters: created similarly, expressing full-length receptor under the control of a CMV promoter; expressed in transfected cells; host or cells: mammalian cells (ATCC CRL-11268), co-transfected with Gα16-gust44; method as in PMID 15723792; settings: published value for human TAS2R38; cited from earlier work
T2 sequence (P59533 1-333): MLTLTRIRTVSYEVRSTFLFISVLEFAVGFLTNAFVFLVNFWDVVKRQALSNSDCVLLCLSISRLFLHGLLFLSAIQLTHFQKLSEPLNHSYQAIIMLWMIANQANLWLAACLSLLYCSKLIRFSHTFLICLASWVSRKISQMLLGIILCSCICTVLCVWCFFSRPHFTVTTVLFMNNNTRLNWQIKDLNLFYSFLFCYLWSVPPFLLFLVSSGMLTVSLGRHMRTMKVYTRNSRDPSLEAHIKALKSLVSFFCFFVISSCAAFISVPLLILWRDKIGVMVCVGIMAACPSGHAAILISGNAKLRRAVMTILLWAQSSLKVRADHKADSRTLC

human TAS2R38 [6] = target: T2, human TAS2R38; test: Ca2+ flux assay, transiently transfected cells with Gα16-gust44; settings: for calcium flux response of human TAS2R38: PTC 100 μM, PROP 30 μM, C4-HSL 200 μM; for Hill Slope TAS2R38 human: calcium flux dose response
human TAS2R16 = target: T3, human TAS2R16 (Homo sapiens, UniProt Q9NYV7); test: Ca2+ flux assay, negative control receptor; settings: PTC 100 μM, C4-HSL
T3 sequence (Q9NYV7 1-291): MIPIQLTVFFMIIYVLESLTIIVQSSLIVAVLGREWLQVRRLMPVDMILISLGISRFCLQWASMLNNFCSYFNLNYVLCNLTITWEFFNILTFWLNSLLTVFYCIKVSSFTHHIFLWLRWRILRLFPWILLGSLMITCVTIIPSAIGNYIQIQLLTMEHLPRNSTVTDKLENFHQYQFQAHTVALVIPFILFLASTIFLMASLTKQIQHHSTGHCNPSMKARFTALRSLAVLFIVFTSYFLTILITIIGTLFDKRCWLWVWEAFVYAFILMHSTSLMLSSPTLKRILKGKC

cat Tas2r38 = target: T4, cat Tas2r38 (Felis catus, UniProt Z9BUK5U3L3); test: Ca2+ flux assay, transiently transfected cells with Gα16-gust44; settings: for calcium flux response of cat Tas2r38: PTC 100 μM, PROP 30 μM, C4-HSL 200 μM
T4 sequence (Z9BUK5U3L3 1-334): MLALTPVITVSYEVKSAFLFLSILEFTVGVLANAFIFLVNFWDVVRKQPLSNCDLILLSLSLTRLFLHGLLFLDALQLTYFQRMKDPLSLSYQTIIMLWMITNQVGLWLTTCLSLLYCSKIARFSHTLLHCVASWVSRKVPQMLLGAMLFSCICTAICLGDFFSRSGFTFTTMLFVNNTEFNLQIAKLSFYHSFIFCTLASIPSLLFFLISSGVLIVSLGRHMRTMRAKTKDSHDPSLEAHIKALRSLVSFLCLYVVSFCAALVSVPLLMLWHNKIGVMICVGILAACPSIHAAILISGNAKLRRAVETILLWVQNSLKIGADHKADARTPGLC

human TAS2R31 = target: T5, human TAS2R31 (Homo sapiens, UniProt P59538); test: Ca2+ flux assay, probenecid specificity control; type: cell-based; settings: 1 mM probenecid, one hour pre-incubation
T5 construct: expressed in transfected cells; host or cells: transiently transfected cells expressing the receptor and Gα16-gust44
T5 sequence (P59538 1-309): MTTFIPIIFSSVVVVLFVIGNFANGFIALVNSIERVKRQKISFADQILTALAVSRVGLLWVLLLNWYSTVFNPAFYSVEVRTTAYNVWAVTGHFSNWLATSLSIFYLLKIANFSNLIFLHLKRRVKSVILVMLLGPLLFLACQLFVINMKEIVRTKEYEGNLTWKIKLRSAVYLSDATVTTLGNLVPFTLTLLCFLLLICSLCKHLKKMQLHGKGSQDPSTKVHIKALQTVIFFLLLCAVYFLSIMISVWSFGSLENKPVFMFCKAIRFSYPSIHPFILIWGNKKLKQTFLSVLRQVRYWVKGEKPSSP

[7] = 1 mM probenecid, one hour pre-incubation, 33 μM PTC
[8] = 1 mM probenecid, one hour pre-incubation, 300 μM aloin
[9] = 1 mM probenecid, one hour pre-incubation, 1 mM denatonium

Sequence of cat Tas2r43 (Felis catus, UniProt A0ABI8A390) (A0ABI8A390 entry or part of it): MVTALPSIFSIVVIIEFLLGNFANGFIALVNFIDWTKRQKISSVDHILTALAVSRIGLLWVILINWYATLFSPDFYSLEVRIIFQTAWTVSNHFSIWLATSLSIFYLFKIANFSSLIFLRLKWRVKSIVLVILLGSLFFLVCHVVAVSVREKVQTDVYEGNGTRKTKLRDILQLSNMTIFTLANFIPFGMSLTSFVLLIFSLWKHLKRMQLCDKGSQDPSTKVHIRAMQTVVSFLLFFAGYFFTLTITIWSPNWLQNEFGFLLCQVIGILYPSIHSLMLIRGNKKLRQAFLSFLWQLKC

SMILES: CC[N+](CC)(CC(=O)Nc1c(C)cccc1C)Cc1ccccc1 [Denatonium, denatonium benzoate]
- EC50 (human TAS2R43 [1]): 1210 µM
- calcium flux response of human TAS2R43 (human TAS2R43 [1]): responded
- Hill Slope TAS2R43 human (human TAS2R43 [1]): 1.3
- calcium flux response of cat Tas2r43 (cat Tas2r43 [2]): responded
- Hill Slope Tas2r43 cat (cat Tas2r43 [2]): 1.7
- fold lower EC50, cat Tas2r43 vs human TAS2R43 (cat Tas2r43 [2]; from EC50 values): greater than 5 fold
- EC50 (human TAS2R43 [3]): 300 µM

SMILES: O=C1NS(=O)(=O)c2ccccc21 [Saccharin, saccharin sodium salt hydrate]
- calcium flux response of cat Tas2r43 (cat Tas2r43 [4]): did not elicit a response

- EC50 (human TAS2R38 [6]): 2200 nM
- Hill Slope TAS2R38 human (human TAS2R38 [6]): 1.59
SMILES: CCCc1cc(=O)[nH]c(=S)[nH]1 [PROP, 6-propyl-2-thiouracil]
- EC50 (human TAS2R38 [5]): 2100 nM
- calcium flux response of human TAS2R38 (human TAS2R38 [6]): responded

SMILES: NC(=S)Nc1ccccc1 [PTC, phenylthiocarbamide]
- EC50 (human TAS2R38 [5]): 1100 nM
- calcium flux response of human TAS2R16 (human TAS2R16): did not respond
- calcium flux response of cat Tas2r38 (cat Tas2r38): strong calcium flux
- peak fluorescence over baseline (cat Tas2r38; PTC at 100 μM): 40%
- Hill Slope Tas2r38 cat (cat Tas2r38; calcium flux dose response): 2.6
- fold less concentration sensitive, cat Tas2r38 vs human TAS2R38 (cat Tas2r38; from EC50 values): at least 10 fold
- EC50 (cat Tas2r38; read-out: EC50 Tas2r38 cat, calcium flux dose response, 22 h post-transfection): 47 µM
- calcium flux response of human TAS2R43 (human TAS2R43 [1]): did not respond
- EC50 (human TAS2R38 [6]): 2300 nM
- calcium flux response of human TAS2R38 (human TAS2R38 [6]): strong calcium flux
- peak fluorescence over baseline (human TAS2R38 [6]; PTC at 100 μM): 27%
- Hill Slope TAS2R38 human (human TAS2R38 [6]): 1.0
- calcium flux response of cat Tas2r43 (cat Tas2r43 [4]): did not respond

SMILES: CCCC(=O)N[C@H]1CCOC1=O [C4-HSL]
- calcium flux response of human TAS2R16 (human TAS2R16): no response
- calcium flux response of cat Tas2r38 (cat Tas2r38): responded weakly but specifically
- calcium flux response of human TAS2R43 (human TAS2R43 [1]): no response
- calcium flux response of human TAS2R38 (human TAS2R38 [6]): responded weakly but specifically

- EC50 (human TAS2R43 [1]): 35 µM
- Hill Slope TAS2R43 human (human TAS2R43 [1]): 0.8
- Hill Slope Tas2r43 cat (cat Tas2r43 [2]): 1.0
- fold more sensitive, human TAS2R43 vs cat Tas2r43 (cat Tas2r43 [2]; from EC50 values): about 10 fold
SMILES: O=C1c2c(O)cccc2C([C@@H]2O[C@H](CO)[C@@H](O)[C@H](O)[C@H]2O)c2cc(CO)cc(O)c21 (stereo partly shown) [Aloin, aloin]
- calcium flux response of human TAS2R43 (human TAS2R43 [1]): responded
- calcium flux response of cat Tas2r43 (cat Tas2r43 [2]): responded
- EC50 (human TAS2R43 [3]): 1.2 µM

SMILES: CCCN(CCC)S(=O)(=O)c1ccc(C(=O)O)cc1 [probenecid]
- probenecid effect on human TAS2R31 response to saccharin (human TAS2R31): stimulation of flux
- probenecid effect on cat Tas2r38 response to PTC (cat Tas2r38; [7]): failed to induce a calcium flux; also recorded: inhibited completely
- probenecid effect on human TAS2R43 response to aloin (human TAS2R43 [1]; [8]): inhibited
- probenecid effect on human TAS2R43 response to denatonium (human TAS2R43 [1]; [9]): inhibited
- probenecid effect on human TAS2R38 response to PTC (human TAS2R38 [6]; [7]): failed to induce a calcium flux; also recorded: inhibited completely
- probenecid effect on cat Tas2r43 response to aloin (cat Tas2r43 [2]; [8]): inhibited
- probenecid effect on cat Tas2r43 response to denatonium (cat Tas2r43 [2]; [9]): inhibited
